Laboratory results: ChEMBL document CHEMBL6182936, “Discovery of KDX1381, a Bivalent CK2α Inhibitor for the Treatment of Solid Tumors as a Single Agent or in Combination” (J Med Chem, 2025)
Values after ≈ are worked out from the molar mass of the structure shown. One block for each molecule: values may come before it. Active and inactive are the calls of the source. The calls are words filed in the database; no cut-off is given here.

Assays:
786-0 [1] = test: cells; details: Homo sapiens, 786-0, 72 h
in vitro = details: mouse, hepatocytes
physchem [2] = details: PBS buffer, pH 7.4
animal or person [3] = details: Homo sapiens, SF767, po, 1152 h, read-out: TGI
A-375 = details: Homo sapiens, dose 5-40 mg/kg, route ip
786-0 [4] = details: Homo sapiens, dose 20.0 mg/kg, route po, time 28.0 day
786-0 [5] = test: cells; details: Homo sapiens, 786-0, 72 h, read-out: Activity
HCT-116 = test: cells; details: Homo sapiens, HCT-116, 72 h, read-out: Activity
786-0 [6] = test: cells; details: Homo sapiens, 786-0, 72 h, read-out: Activity; remark: listed apart in the source
786-0 [7] = test: cells; details: Homo sapiens, 786-0, 72 h, read-out: Activity; remark: listed apart in the source
in vivo [8] = details: CD-1, mouse, iv, 1 mg/kg
in vivo [9] = details: CD-1, mouse, iv, 1 mg/kg; remark: listed apart in the source
in vivo [10] = details: CD-1, mouse, iv, 1 mg/kg; remark: listed apart in the source
in vivo [11] = details: CD-1, mouse, ip, 40 mg/kg
in vivo [12] = details: CD-1, mouse, ip, 40 mg/kg; remark: listed apart in the source
in vivo [13] = details: CD-1, mouse, ip, 40 mg/kg; remark: listed apart in the source
in vivo [14] = details: CD-1, mouse, ip, 40 mg/kg; remark: listed apart in the source
physchem [15] = details: PBS buffer, pH 7.4; remark: listed apart in the source
physchem [16] = details: FaSSIF, pH 6.5
physchem [17] = details: NCl, pH 1.2
786-0 [18] = test: animal or person; details: Mus musculus, 786-0, 384 h, read-out: TGI
Hep 3B2 [19] = test: animal or person; details: Mus musculus, Hep3B, po, read-out: TGI
Hep 3B2 [20] = test: animal or person; details: Mus musculus, Hep3B, po, read-out: TGI; remark: listed apart in the source
animal or person [21] = details: Homo sapiens, SF767, po, 1152 h, read-out: TGI; remark: listed apart in the source
animal or person [22] = details: Homo sapiens, SF767, po, 1152 h, read-out: TGI; remark: listed apart in the source
786-0 [23] = test: cells; details: Homo sapiens, 786-0, 72 h, read-out: Activity; remark: listed apart in the source
Hep 3B2 [24] = test: animal or person; details: Mus musculus, Hep3B, po, read-out: TGI; remark: listed apart in the source
786-0 [25] = test: cells; details: Homo sapiens
SK-BR-3 [26] = test: cells; details: Homo sapiens
786-0 [27] = test: cells; details: Homo sapiens; remark: listed apart in the source
SK-BR-3 [28] = test: cells; details: Homo sapiens; remark: listed apart in the source
physchem [29] = test: physchem

SMILES: CC(C)Cc1ccc(S(=O)(=O)NCCN2CCC(Cn3cc(-c4c(C(=O)C(C)C)[nH]c5ccc(F)cc45)nn3)CC2)cc1
IC50 (786-0 [1]): > 10 µM
remaining at 0.5 h (in vitro): 15%
solubility at 24 h (physchem [2]): 0.9 µg/mL (≈ 1.48 µM)

SMILES: CC(C)Cc1ccc(S(=O)(=O)NCCN2CCC(Cn3cc(-c4c(C(=O)C5CC5)[nH]c5ccc(F)cc45)nn3)CC2)cc1
IC50 (786-0 [1]): > 10 µM
solubility at 24 h (physchem [2]): < 0.5 µg/mL

SMILES: CC(=O)c1[nH]c2ccc(F)cc2c1-c1cn(CC2CCN(CCNS(=O)(=O)c3ccc(-c4cccc5ccsc45)cc3)CC2)nn1
IC50 (786-0 [1]): > 10 µM

SMILES: COc1cccc(OC)c1-c1ccc(S(=O)(=O)NCCN2CCC(Cn3cc(-c4c(C(C)=O)[nH]c5ccc(F)cc45)nn3)CC2)cc1
IC50 (786-0 [1]): > 10 µM
remaining at 0.5 h (in vitro): 67%
solubility at 24 h (physchem [2]): 8 µg/mL (≈ 12.1 µM)

SMILES: CC(=O)c1[nH]c2ccc(F)cc2c1-c1cn(CC2CCN(CCNS(=O)(=O)c3ccc(-c4c(O)cccc4F)c(C#N)c3)CC2)nn1
solubility at 24 h (physchem [2]): 25.5 µg/mL (≈ 38.7 µM)

SMILES: Cn1nnc2c(C(N)=O)ncn2c1=O [TEMOZOLOMIDE]
inhibition in vivo at 20 mg/kg (animal or person [3]): 67%

SMILES: CCOC(=O)c1[nH]c2ccc(F)cc2c1-c1cn(CC2CCN(CCNS(=O)(=O)c3ccc(CC(C)C)cc3)CC2)nn1
IC50 (786-0 [1]): > 10 µM
remaining at 0.5 h (in vitro): < 10%
solubility at 24 h (physchem [2]): < 0.5 µg/mL

SMILES: CC(=O)c1[nH]c2ccc(F)cc2c1-c1cn(CC2CCN(CCNS(=O)(=O)c3ccc(-c4c(F)cccc4C(F)(F)F)cc3)CC2)nn1
IC50 (786-0 [1]): > 10 µM
solubility at 24 h (physchem [2]): < 0.5 µg/mL

SMILES: COc1cccc(F)c1-c1ccc(S(=O)(=O)NCCN2CCC(Cn3cc(-c4c(C(C)=O)[nH]c5ccc(F)cc45)nn3)CC2)cc1
IC50 (786-0 [1]): > 10 µM
remaining at 0.5 h (in vitro): 48%
solubility at 24 h (physchem [2]): 5.4 µg/mL (≈ 8.32 µM)

SMILES: O=C(O)c1ccc2c(c1)nc(Nc1cccc(Cl)c1)c1ccncc12 [SILMITASERTIB]
viability at 10 µM (786-0 [5]): 93.5%
viability at 10 µM (HCT-116): 69.2%

SMILES: CC(=O)c1[nH]c2ccc(F)cc2c1-c1cn(CC2CCN(CCNS(=O)(=O)c3ccc(-c4c(O)cccc4F)c(Cl)c3)CC2)nn1
IC50 (786-0 [1]): > 10 µM
solubility at 24 h (physchem [2]): < 0.5 µg/mL

SMILES: CSc1ccccc1-c1ccc(S(=O)(=O)NCCN2CCC(Cn3cc(-c4c(C(C)=O)[nH]c5ccc(F)cc45)nn3)CC2)cc1C
IC50 (786-0 [1]): > 10 µM
remaining at 0.5 h (in vitro): 26%
solubility at 24 h (physchem [2]): < 0.5 µg/mL

SMILES: COc1cc(S(=O)(=O)NCCN2CCC(Cn3cc(-c4c(C(C)=O)[nH]c5ccc(F)cc45)nn3)CC2)ccc1-c1c(O)cccc1F
IC50 (786-0 [1]): > 10 µM
remaining at 0.5 h (in vitro): 39%
solubility at 24 h (physchem [2]): 3.2 µg/mL (≈ 4.81 µM)

SMILES: CNC(=O)c1cc(Oc2ccc(NC(=O)Nc3ccc(Cl)c(C(F)(F)F)c3)cc2)ccn1 [SORAFENIB]
viability at 4.5 µM (786-0 [23]): 88%
inhibition in vivo at 40 mg/kg (Hep 3B2 [24]): 29%

SMILES: CC(C)COC(=O)c1[nH]c2ccc(F)cc2c1-c1cn(CC2CCN(CCNS(=O)(=O)c3ccc(CC(C)C)cc3)CC2)nn1
IC50 (786-0 [25]): 14.8 µM
IC50 (SK-BR-3 [26]): 8.9 µM
IC50 (786-0 [27]): 14.8 µM
IC50 (SK-BR-3 [28]): 8.9 µM
IC50 (786-0 [1]): > 10 µM
solubility (physchem [29]): < 0.5 µg/mL
remaining at 0.5 h (in vitro): < 10%
solubility at 24 h (physchem [2]): < 0.5 µg/mL

Continued, in another order:

IC50 (786-0 [1]): 6.8 µM
remaining at 0.5 h (in vitro): 25%
solubility at 24 h (physchem [2]): 1.5 µg/mL (≈ 2.78 µM)
SMILES: CC(C)Cc1ccc(S(=O)(=O)NCCN2CCC(Cn3cc(-c4c[nH]c5ccc(F)cc45)nn3)CC2)cc1

IC50 (786-0 [1]): 1.7 µM
remaining at 0.5 h (in vitro): 44%
solubility at 24 h (physchem [2]): 1.9 µg/mL (≈ 2.82 µM)
SMILES: COc1cccc(OC)c1-c1ccc(S(=O)(=O)NCCN2CCC(Cn3cc(-c4c(C(C)=O)[nH]c5ccc(F)cc45)nn3)CC2)cc1C

IC50 (786-0 [1]): 3.3 µM
solubility at 24 h (physchem [2]): < 0.5 µg/mL
SMILES: CC(=O)c1[nH]c2ccc(F)cc2c1-c1cn(CC2CCN(CCNS(=O)(=O)c3ccc(-c4c(O)cccc4Cl)cc3)CC2)nn1

IC50 (786-0 [1]): 0.9 µM
remaining at 0.5 h (in vitro): 46%
solubility at 24 h (physchem [2]): 18.5 µg/mL (≈ 30 µM)
SMILES: CC(=O)c1[nH]c2ccc(F)cc2c1-c1cn(CC2CCN(CCNS(=O)(=O)c3ccc(-c4ccccc4O)cc3)CC2)nn1

IC50 (786-0 [1]): 6.6 µM
remaining at 0.5 h (in vitro): 27%
solubility at 24 h (physchem [2]): 3.4 µg/mL (≈ 5.24 µM)
SMILES: CC(=O)c1[nH]c2ccc(F)cc2c1-c1cn(CC2CCN(CCNS(=O)(=O)c3ccc(-c4c(O)cccc4F)c(C)c3)CC2)nn1

IC50 (786-0 [1]): 5.9 µM
remaining at 0.5 h (in vitro): 18%
solubility at 24 h (physchem [2]): 2.7 µg/mL (≈ 5.19 µM)
SMILES: CC(C)Cc1ccc(S(=O)(=O)NCCN2CCC(Cn3cc(-c4c[nH]c5ccccc45)nn3)CC2)cc1

IC50 (786-0 [1]): 0.8 µM
clearance at 24 h (in vivo [8]): 60.5 mL/min/kg
Vd at 24 h (in vivo [9]): 5.9 L/kg
half-life at 24 h (in vivo [10]): 67.8 min
AUC(0-inf) at 24 h (in vivo [11]): 8640 ng·h/mL
Cmax at 24 h (in vivo [12]): 2700 ng/mL
Tmax at 24 h (in vivo [13]): 1.33 h
bioavailability at 24 h (in vivo [14]): > 100%
remaining at 0.5 h (in vitro): 42%
solubility at 24 h (physchem [2]): 10.7 µg/mL (≈ 16.9 µM)
solubility (physchem [15]): 1.7 µg/mL (≈ 2.68 µM)
solubility (physchem [16]): > 100 µg/mL
solubility (physchem [17]): 28.2 µg/mL (≈ 44.4 µM)
SMILES: CC(=O)c1[nH]c2ccc(F)cc2c1-c1cn(CC2CCN(CCNS(=O)(=O)c3ccc(-c4c(O)cccc4F)cc3)CC2)nn1
TGI (A-375): Active
TGI (786-0 [4]): Active
viability at 10 µM (786-0 [5]): 12.7%
viability at 10 µM (HCT-116): 85.1%
viability at 1 µM (786-0 [6]): 90.4%
viability at 1 µM (786-0 [7]): 25%
inhibition in vivo at 40 mg/kg (786-0 [18]): 90%
inhibition in vivo at 30 mg/kg (Hep 3B2 [19]): 95%
inhibition in vivo at 30 mg/kg (Hep 3B2 [20]): 74%
inhibition in vivo at 40 mg/kg (animal or person [21]): 77%
inhibition in vivo at 40 mg/kg (animal or person [22]): 103%

IC50 (786-0 [1]): 3.2 µM
remaining at 0.5 h (in vitro): 53%
solubility at 24 h (physchem [2]): 10.4 µg/mL (≈ 17.9 µM)
SMILES: CC(=O)c1[nH]c2ccc(F)cc2c1-c1cn(CC2CCN(CCNS(=O)(=O)c3ccc(CC(C)C)cc3)CC2)nn1

IC50 (786-0 [1]): 3.6 µM
remaining at 0.5 h (in vitro): < 10%
solubility at 24 h (physchem [2]): 1.1 µg/mL (≈ 1.57 µM)
SMILES: CC(=O)c1[nH]c2ccc(F)cc2c1-c1cn(CC2CCN(CCNS(=O)(=O)c3ccc(-c4c(O)cccc4F)c(C(F)(F)F)c3)CC2)nn1

IC50 (786-0 [1]): 2.9 µM
SMILES: COc1ccccc1-c1ccc(S(=O)(=O)NCCN2CCC(Cn3cc(-c4c(C(C)=O)[nH]c5ccc(F)cc45)nn3)CC2)cc1C
